Results published in EP0479888B1, “IMPROVED BUILDER-CONTAINING AQUEOUS CLEANER/DEGREASER MICROEMULSION COMPOSITIONS” (BUCKEYE INTERNATIONAL, INC., priority 1989, dated 1991).

Conditions: water

CCCCOC(C)=O [n-butyl acetate]
aqueous ambient temperature solubility: 0.7 wt.%
